Data: EP0545103A1, “Insecticidal, acaricidal and molluscicidal 1-(substituted) thioalkylpyrroles” (priority 1991, dated 1993)

What was measured:
Format in all cases: in vivo
[1] = test system: Aphis fabae, mixed instar, bean aphid; assay: Bean aphid spray test on nasturtium; set-up: key: 0: no effect; 10-25% kill; 26-35% kill; 36-45% kill; 46-55% kill; 56-65% kill; 66-75% kill; 76-85% kill; 86-99% kill; 9: 100% kill; conditions: 100 ppm
Method: (§1) Test solutions are prepared by dissolving the test compound in a 35% acetone in water mixture to give a concentration of 10,000 ppm. Subsequent dilutions are made with water as needed.
Aphis fabae, mixed instar, bean aphid
Pots containing single nasturtium plants (Tropaeolum sp.) about 5 cm tall are infested with about 100-200 aphids one day prior to treatment. Each pot is sprayed with the test solution for 2 revolutions of a 4 rpm turntable in a hood, using a #154 DeVilbiss atomizer. The spray tip is held about 15 cm from the plant and the spray directed so as to give complete coverage of the plants and the aphids. The sprayed pots are set on their sides on white enamel trays and mortality estimates are made after 2 days.
(§2) All of the above tests are rated according to the rating scale shown below.

[2] = test system: Spodoptera eridania, 3rd instar larvae, southern armyworm; assay: Southern armyworm 7-day residual test; conditions: R designates Residual: 7-day residual foliage, concentration not given; for ARMYWORM Day 3 R: rating at 3 days; for ARMYWORM Day 5 R: rating at 5 days
Method: as §1
Spodoptera eridania, 3rd instar larvae, southern armyworm, 7-day residual
The limabean leaves treated in the above test are maintained under high intensity lamps in the greenhouse for 7 days. These lamps duplicate the effects of a bright sunny day in June in New Jersey and are kept on for 14 hour day length. After 7 days, the foliage is sampled and assayed as in the above-said test.
as §2

[3] = test system: Heliothis virescens, egg, tobacco budworm; assay: Tobacco budworm egg test, dipped cotton leaf and eggs; set-up: key: 0: no effect; 10-25% kill; 26-35% kill; 36-45% kill; 46-55% kill; 56-65% kill; 66-75% kill; 76-85% kill; 86-99% kill; 9: 100% kill; conditions: mortality rating after 3 days
Method: as §1
Heliothis virescens, egg, tobacco budworm
A young cotton leaf about 6-7cm in length is dipped in an agitated test suspension for about 3 seconds. Eggs are collected on a cheesecloth and the cloth is cut into 10-20mm squares, each containing approximately 50-100 eggs which are 6-30 hours old. The egg-containing cheesecloth square is similarly dipped in a test suspension and placed on a treated cotton leaf. The combination is dried in a hood and then placed in an 8 ounce Dixie® cup #2168-ST (240ml volume, 6cm tall, 9.5cm top diameter, 8.0cm bottom diameter) into which a 5cm length of damp dental wick has been placed. The cup is covered with a clear plastic lid and held for 3 days, after which mortality counts are made.
as §2

[4] = test system: Spodoptera eridania, 3rd instar larvae, southern armyworm; assay: Southern armyworm 3rd instar test, dipped limabean leaf; set-up: key: 0: no effect; 10-25% kill; 26-35% kill; 36-45% kill; 46-55% kill; 56-65% kill; 66-75% kill; 76-85% kill; 86-99% kill; 9: 100% kill; conditions: for ARMYWORM Day 3: rating at 3 days; for ARMYWORM Day 5: rating at 5 days
Method: as §1
Spodoptera eridania, 3rd instar larvae, southern armyworm
A Sieva limabean leaf expanded to 7-8 cm in length is dipped in the test solution with agitation for 3 seconds and allowed to dry in a hood. The leaf is then placed in a 100 x 10 mm petri dish containing a damp filterpaper on the bottom and ten 3rd instar caterpillars. At 3 and 5 days, observations are made of mortality, reduced feeding, or any interference with normal molting.
as §2

[5] = test system: Empoasca abrupta, adult, western potato leafhopper; assay: Western potato leafhopper contact test, dipped limabean leaf; set-up: key: 0: no effect; 10-25% kill; 26-35% kill; 36-45% kill; 46-55% kill; 56-65% kill; 66-75% kill; 76-85% kill; 86-99% kill; 9: 100% kill; conditions: mortality rating after 2 days
Method: as §1
Empoasca abrupta, adult, western potato leafhopper
A Sieva limabean leaf about 5 cm long is dipped in the test solution for 3 seconds with agitation and placed in a hood to dry. The treated leaf is placed in a 100 x 10 mm petri dish containing a moist filter paper and about 10 adult leafhoppers are added. After 2 days, mortality counts are made.
as §2

[6] = test system: Tetranychus urticae (OP-resistant strain), 2-spotted spider mite; assay: 2-spotted spider mite test, dipped infested limabean plants; set-up: key: 0: no effect; 10-25% kill; 26-35% kill; 36-45% kill; 46-55% kill; 56-65% kill; 66-75% kill; 76-85% kill; 86-99% kill; 9: 100% kill
Method: as §1
Tetranychus urticae (OP-resistant strain), 2-spotted spider mite
Sieva limabean plants with primary leaves expanded to 7-8 cm are selected and cut back to one plant per pot. A small piece is cut from an infested leaf taken from the main colony and placed on each leaf of the test plants. This is done about 2 hours before treatment to allow the mites to move over to the test plant and to lay eggs. The size of the cut, infested leaf is varied to obtain about 100 mites per leaf. At the time of test treatment, the piece of leaf used to transfer the mites is removed and discarded. The newly mite-infested plants are dipped in the test solution for 3 seconds with agitation and set in the hood to dry. After 2 days one leaf is removed and mortality counts are made. After 5 days, another leaf is removed and observations are made of mortality of the eggs and/or newly emerged nymphs.
as §2

[7] = test system: Diabrotic undecimpunctata howardi, 3rd instar southern corn rootworm; assay: Southern corn rootworm soil test; set-up: key: 0: no effect; 10-25% kill; 26-35% kill; 36-45% kill; 46-55% kill; 56-65% kill; 66-75% kill; 76-85% kill; 86-99% kill; 9: 100% kill; conditions: mortality rating after 6 days
Method: Diabrotic undecimpunctata howardi, 3rd instar southern corn rootworm
One cc of fine talc is placed in a 30 mL wide-mouth screw-top glass jar. One mL of the appropriate acetone test solution is pipetted onto the talc so as to provide 1.25 and 0.25 mg of active ingredient per jar. The jars are set under a gentle air flow until the acetone is evaporated. The dried talc is loosened, 1 cc of millet seed is added to serve as food for the insects and 25 mL of moist soil is added to each jar. The jar is capped and the contents thoroughly mixed on a Vortex Mixer. Following this, ten 3rd instar rootworms are added to each jar and the jars are loosely capped to allow air exchange for the larvae. The treatments are held for 6 days when mortality counts are made. Missing larvae are presumed dead, since they decompose rapidly and can not be found. The concentrations used in this test correspond approximately to 50 and 10 kg/ha, respectively.
as §2

[8] = test system: Spodoptera eridania, 3rd instar larvae, southern armyworm; assay: Southern armyworm systemic uptake (stem systemic) test; set-up: key: 0: no effect; 10-25% kill; 26-35% kill; 36-45% kill; 46-55% kill; 56-65% kill; 66-75% kill; 76-85% kill; 86-99% kill; 9: 100% kill; conditions: cut stem in emulsion 3 days
Text: Spodoptera eridania, systemic uptake, 3rd instar larvae, southern armyworm
Subsequent 10-fold dilutions are made with water as needed. Sieva limabean plants, with the primary leaves expanded to a length of 7-8 cm, are cut off at least 3 cm above the soil level to avoid contamination with soil bacteria which will cause decay of the stem during the test. The cut stem is placed in the test emulsion and wrapped with a bit of cotton to hold the stem off the bottom of the bottle and to limit evaporation. The treated stem is thus maintained for 3 days at 27° C to allow the test compound to be taken up into the plant. Following this, one leaf is removed from the plant and placed in a 100 x 10 mm petri dish with 10 southern armyworms as described above. Mortality counts and observations of feeding damage are made 3 and 5 days later.
as §2

[9] = test system: Empoasca abrupta, adult, western potato leafhopper; assay: Western potato leafhopper systemic uptake test; set-up: key: 0: no effect; 10-25% kill; 26-35% kill; 36-45% kill; 46-55% kill; 56-65% kill; 66-75% kill; 76-85% kill; 86-99% kill; 9: 100% kill; conditions: 100 ppm; systemic uptake; rating scale 0-9
Method: Empoasca abrupta, adult, western potato leafhopper Systemic Uptake
An emulsion containing 0.1 gm of the test material, 0.2 gm of Emulphor EL-620® emulsifier, 10 mL of acetone and 90 mL of water is prepared and diluted 10-fold with water to give a 100 ppm emulsion. Subsequent 10-fold dilutions are made with water as needed. Sieva limabean plants, with the primary leaves expanded to a length of 7-8 cm, are cut off at least 3 cm above the soil level to avoid contamination with soil bacteria which will cause decay of the stem during the test. The cut stem is placed in the test emulsion and wrapped with a bit of cotton to hold the stem off the bottom of the bottle and to limit evaporation. The treated stem is maintained for 3 days at 27°C to allow the test compound to be taken up into the plant. Following this, one leaf is removed from the plant and placed in a 100 x 10 mm petri dish containing a moist filter paper and about 10 adult leafhoppers as described above. Mortality counts are made after 2 days.
as §2

[10] = 300 ppm, adult mites, rating scale 0-9
[11] = 300 ppm, mite eggs, rating scale 0-9
[12] = 300 ppm, mite nymphs, rating scale 0-9

## N#Cc1c(Br)c(C(F)(F)F)n(CSC2=NCCCN2)c1-c1ccc(Cl)cc1 [Example 8]
[1]; spray, mortality rating after 2 days
  APHIDS: 0
[2]
  ARMYWORM Day 3 R: 9 (100% kill)
  ARMYWORM Day 5 R: 9 (100% kill)
[3]; 100 ppm
  TOBACCO BUDWORM Egg: 0
[3]; 1000 ppm
  TOBACCO BUDWORM Egg: 0
[4]; 10 ppm
  ARMYWORM Day 3: 0
[4]; 100 ppm
  ARMYWORM Day 3: 9 (100% kill)
[4]; 1000 ppm
  ARMYWORM Day 3: 9 (100% kill)
[5]; 10 ppm
  LEAFHOPPER Contact: 0
[5]; 100 ppm
  LEAFHOPPER Contact: 8 (86-99% kill)
[6]; 10 ppm, mortality rating after 2 days
  OP-RESISTANT MITES Adult: 0
[6]; 10 ppm, rating after 5 days
  OP-RESISTANT MITES Nymph: 0
[6]; 100 ppm, mortality rating after 2 days
  OP-RESISTANT MITES Adult: 9 (100% kill)
[6]; 100 ppm, rating after 5 days
  OP-RESISTANT MITES Nymph: 8 (86-99% kill)
[6]; 300 ppm, mortality rating after 2 days
  OP-RESISTANT MITES Adult: 9 (100% kill)
[6]; 300 ppm, rating after 5 days
  OP-RESISTANT MITES Egg: 0
  OP-RESISTANT MITES Nymph: 0
[7]; 50 (ppm as headed)
  SOUTHERN CORN ROOTWORM: 0
[8]
  ARMYWORM Stem Sys: 9 (100% kill)

## N#Cc1c(Br)c(C(F)(F)F)n(CSc2ncc[nH]2)c1-c1ccc(Cl)cc1 [Example 1]
[1]; rating scale 0-9
  APHIDS: 0
[2]
  ARMYWORM Day 3 R: 9 (100% kill)
  ARMYWORM Day 5 R: 9 (100% kill)
[3]; 100 ppm
  TOBACCO BUDWORM Egg: 0
[3]; 1000 ppm
  TOBACCO BUDWORM Egg: 0
[4]; 10 ppm
  ARMYWORM Day 3: 9 (100% kill)
  ARMYWORM Day 5: 9 (100% kill)
[4]; 100 ppm
  ARMYWORM Day 3: 9 (100% kill)
  ARMYWORM Day 5: 9 (100% kill)
[4]; 1000 ppm
  ARMYWORM Day 3: 9 (100% kill)
  ARMYWORM Day 5: 9 (100% kill)
[9]
  LEAFHOPPER Systemic: 0
[6]; [10]
  OP-RESISTANT MITES Adult: 0
[6]; [11]
  OP-RESISTANT MITES Egg: 0
[6]; [12]
  OP-RESISTANT MITES Nymph: 0
[7]; 50 (ppm as headed)
  SOUTHERN CORN ROOTWORM: 0
[8]
  ARMYWORM Stem Sys: 0

## CCN=C(NCC)SCn1c(-c2ccc(Cl)cc2)c(C#N)c(Br)c1C(F)(F)F [Example 12]
[1]; rating scale 0-9
  APHIDS: 0
[2]
  ARMYWORM Day 3 R: 9 (100% kill)
  ARMYWORM Day 5 R: 9 (100% kill)
[3]; 1000 ppm
  TOBACCO BUDWORM Egg: 0
[4]; 10 ppm
  ARMYWORM Day 3: 9 (100% kill)
  ARMYWORM Day 5: 9 (100% kill)
[4]; 100 ppm
  ARMYWORM Day 3: 9 (100% kill)
  ARMYWORM Day 5: 9 (100% kill)
[4]; 1000 ppm
  ARMYWORM Day 3: 9 (100% kill)
  ARMYWORM Day 5: 9 (100% kill)
[6]; [10]
  OP-RESISTANT MITES Adult: 0
[6]; [11]
  OP-RESISTANT MITES Egg: 0
[6]; [12]
  OP-RESISTANT MITES Nymph: 0
[7]; 1 (ppm as headed)
  SOUTHERN CORN ROOTWORM: 0
[8]
  ARMYWORM Stem Sys: 0

## N#Cc1c(Br)c(C(F)(F)F)n(CSC2=NCCCCN2)c1-c1ccc(Cl)cc1 [Example 11]
[1]; rating scale 0-9
  APHIDS: 0
[2]
  ARMYWORM Day 3 R: 9 (100% kill)
  ARMYWORM Day 5 R: 9 (100% kill)
[3]; 100 ppm
  TOBACCO BUDWORM Egg: 3 (36-45% kill)
[3]; 1000 ppm
  TOBACCO BUDWORM Egg: 5 (56-65% kill)
[4]; 10 ppm
  ARMYWORM Day 3: 9 (100% kill)
  ARMYWORM Day 5: 9 (100% kill)
[4]; 100 ppm
  ARMYWORM Day 3: 9 (100% kill)
  ARMYWORM Day 5: 9 (100% kill)
[4]; 1000 ppm
  ARMYWORM Day 3: 9 (100% kill)
  ARMYWORM Day 5: 9 (100% kill)
[9]
  LEAFHOPPER Systemic: 9 (100% kill)
[6]; [10]
  OP-RESISTANT MITES Adult: 0
[6]; [11]
  OP-RESISTANT MITES Egg: 0
[6]; [12]
  OP-RESISTANT MITES Nymph: 0
[7]; 50 (ppm as headed)
  SOUTHERN CORN ROOTWORM: 0
[8]
  ARMYWORM Stem Sys: 9 (100% kill)
